Test results as given in patent US10653779B2, “Formulations with reduced oxidation” (Genentech, Inc., priority 2013, dated 2020).

What was measured:
mAb1 [1] = experiment: mAb1 light stress study, 16 hours; Fab/Fc oxidation by RP-HPLC; type: physicochemical, human; details: 16 hours of light at 250 W/m^2
Protocol: The fragments were reduced with DTT, and then separated and identified via Liquid Chromatography-Mass Spectrometry (LC-MS). […] Comparison of area integrated under the oxidized and native peaks was used to quantify HC Fab and Fc oxidation. […] By using the papain digest RP-HPLC method in the present study it was possible to investigate Trp residue oxidation by quantifying HC Fab oxidation, and Met residue oxidation by quantifying HC Fc oxidation.
Antioxidants were added at 1 mM. Glass vials containing these formulations were exposed to 250 W/m^2 light in an Atlas SunTest CPS+ Xenon Test Instrument (Chicago, Ill.). Control vials were wrapped in aluminum foil and treated similarly. After light exposure, solutions were prepared for analysis by reverse-phase HPLC as described above.

mAb1 [2] = experiment: Ambient light exposure of 50 mg/mL mAb1 formulations containing L-Trp (Amplex assay, RP-HPLC); type: physicochemical, human
Excerpt: While confirming the photosensitivity of free L-Trp under ICH light conditions, the effect of ambient light that was typically seen in laboratories was studied. Measurements using a DLM1 digital light meter in various labs indicated an average of 300 lux on a lab benchtop (with white fluorescent lighting), an average of 3000 lux in a laminar flow hood (with white fluorescent lighting) and about 10000 lux for a windowsill exposed to southeast sunlight. […] Peroxide production increased with both luminosity (300, 3000, and 10000 lux) and time (1, 3, and 7 days). […] These levels of light exposure and time were determined to be pharmaceutically relevant for drug substance handling under ambient light and temperature before fill/finish operations and potentially while inspecting drug product vials.

mAb1 [3] = experiment: mAb1 light stress, eight hours, with L-Trp and L-Met; Fab/Fc oxidation by papain digest RP-HPLC; type: physicochemical, human; details: 5 mg/mL mAb1, 8 h light at 250 W/m^2, L-Trp at 1 mM
Protocol: L-tryptophan (L-Trp), an antioxidant used in protein formulations, has been recently shown to be photosensitive (Igarashi et al., Anal Sci 23(8):943-8 (2007)) and to have the ability to produce H2O2 upon light exposure. […] Control vials were wrapped in aluminum foil and treated similarly. After light exposure, solutions were prepared for analysis by reverse-phase HPLC. […] Following incubation, 900 μL of the solution was combined with 100 μL of 1 M dithiothreitol (DTT) and incubated for another thirty minutes at 37° C. Samples were then run on an Agilent, Inc. 1100/1200 HPLC system (Santa Clara, Calif.) equipped with UV detection at 280 nm in conjunction with a Varian, Inc. Pursuit 3 μm, 2 mm ID×250 mm diphenyl column (Palo Alto, Calif.). Mobile Phase A was 0.1% TFA in water. Mobile Phase B was 0.1% TFA in acetonitrile. The mobile phase gradient increased linearly from 34% B at 0 minutes to 43% B at 50.0 minutes, then to 95% B at 50.1 minutes. The gradient remained at 95% B until 60.1 minutes, and then decreased linearly from 95% B to 34% B between 60.1 and 60.2 minutes. The gradient remained at 34% B until the end of the cycle at 80.2 minutes. The column temperature was 65° C., total flow rate was 0.2 mL/min, and injection volume of each sample was 6 μL. Chromatograms were then integrated for quantification of oxidation.

[4] = Photosensitivity screening: H2O2 formation by antioxidant candidates upon light exposure (Amplex Ultra Red Assay); type: physicochemical
Protocol: As a screening tool, antioxidant candidates were exposed to light for four hours at 250 W/m^2 and the resulting H2O2 formation was quantified by the Amplexassay. Specifically, antioxidants were prepared to 1 mM in 20 mM histidine acetate buffer at pH 5.5. The 1 mM antioxidant solutions were aliquoted into glass vials (2 mL/glass vial) and exposed to four hours of light at 250 W/m^2 in an Atlas SunTest CPS+ Xenon Test Instrument (Chicago, Ill.). Total UV dose was 90 watt-hours/square meter and total visible dose was 0.22 million lux hours over the 4-hour period. Control vials were wrapped in aluminum foil and treated similarly. The amount of hydrogen peroxide generated after exposure to light was measured using the Amplex® Ultra Red Assay (Invitrogen, Carlsbad, Calif.) following the manufacturer's recommended procedure. On addition of horseradish peroxidase (HRP), the dye reacted 1:1 stoichiometrically with H2O2, resulting in the production of fluorescent oxidation product resorufin. In this study, fluorescence readings were obtained using a Spectra Max M2 Micro-plate Reader (Molecular Devices, Sunnyvale, Calif.) with excitation and emission set at 560 nm and 590 nm, respectively. Final H2O2 concentrations were determined using a standard curve ranging from 0 μm to 20 μm. […]

[5] = Cyclic voltammetry (CV) screening of oxidation potentials; type: physicochemical; details: glassy carbon working electrode, 0.2 M lithium perchlorate
Protocol: The oxidation/reduction characteristics of the compounds were investigated. Several compounds, including L-Trp and derivatives, were evaluated for the protection of Trp oxidation in proteins using cyclic voltammetry (CV) and rank ordered based on their oxidation potentials (Table 2). Specifically, the candidate antioxidants were dissolved in deionized water and then added to a 0.2 M lithium perchlorate electrolyte solution. […] Solutions were scanned from −0.10 V to +1.50 V at a scan rate of either 100 or 500 mV/sec. The analytical cell was purged for four minutes with nitrogen before scanning of each antioxidant solution. The input was a linear scan of the potential of a working electrode, and the output was measurement of the resulting current. […] Redox reactions were characterized by sharp increases or decreases in current (peaks). The potential at which an oxidation reaction occurred was referred to as the anodic peak potential (or oxidation potential), and the potential at which a reduction occurred was referred to as is the cathodic peak (or reduction) potential.

## N[C@@H](Cc1c[nH]c2ccccc12)C(=O)O [L-Trp, L-Tryptophan]
mAb1 [1]; 1 mM L-Trp
  Fc oxidation relative to the control level: 7 times
mAb1 [1]; excipient 1 mM, label mAb1 = No Excipient
  Fab oxidation increase over the control level (mAb1 Ref Mat): over 11 fold
mAb1 [2]; 50 mg/mL mAb1 with 3.2 mM L-Trp, 10 days ambient light
  Heavy chain Fab oxidation (W53) with increased luminosity (in words): increased heavy chain Fab oxidation
mAb1 [2]; 50 mg/mL mAb1 with 3.2 mM L-Trp, ambient light 300 lux
  % Fc oxidation in mAb1: 5%
mAb1 [2]; 50 mg/mL mAb1 with 3.2 mM L-Trp, ambient light 10000 lux
  % Fc oxidation in mAb1: 40%
mAb1 [2]; L-Trp in formulation buffers containing 50 mg/mL mAb1, 300, 3000, 10000 lux, 1, 3, 7 days
  Hydrogen peroxide produced under ambient light: in the micromolar range
mAb1 [3]
  Fc oxidation of mAb1: over 20%
mAb1 [3]; label mAb1 = No Excipient
  Fab oxidation of mAb1: ~9%
[4]; 1 mM in 20 mM histidine acetate pH 5.5, four hours of light at 250 W/m^2
  (H2O2 produced by Compound)/(H2O2 produced by L-Trp): 1
[4]; 1 mM, 20 mM L-His-acetate pH 5.5, 4 h light, 0.22 million lux hours
  H2O2 production upon light exposure compared to L-Trp (in words): produced more H2O2
[5]
  Oxidation Potential (anodic peak): 0.938 V vs Ag/AgCl
